US20170087138A1 (priority 2007, published 2017)
Where a name gives a salt, the structure may show the parent alone.

Key:
[1] = Solubility of salts in water, pH of the saturated solution and identity of the precipitate; type: physicochemical; conditions: for solubility (in words): table 3; for Precipitate: whether precipitate isolated after solubility determination is identical to the compound dissolved; for Resulting pH: pH in the saturated solution of the salt
Procedure: If the acid is a liquid it was added neat otherwise it was dissolved in the given solvent prior to addition. After mixing and precipitation stirring was continued overnight and the precipitate collected by filtration. Before drying in vacuum at 30° C. a small reference sample was withdrawn and dried at room temperature without vacuum. This procedure was included in order to test for solvates.

[2] = target: T1, human-homomeric 5-HT3A receptors (Homo sapiens, UniProt P46098); assay: 5-HT3A receptor antagonism, voltage clamp in Xenopus oocytes; type: cell-based; conditions: higher concentrations (100-100000 nM)
T1 sequence (P46098 24-478): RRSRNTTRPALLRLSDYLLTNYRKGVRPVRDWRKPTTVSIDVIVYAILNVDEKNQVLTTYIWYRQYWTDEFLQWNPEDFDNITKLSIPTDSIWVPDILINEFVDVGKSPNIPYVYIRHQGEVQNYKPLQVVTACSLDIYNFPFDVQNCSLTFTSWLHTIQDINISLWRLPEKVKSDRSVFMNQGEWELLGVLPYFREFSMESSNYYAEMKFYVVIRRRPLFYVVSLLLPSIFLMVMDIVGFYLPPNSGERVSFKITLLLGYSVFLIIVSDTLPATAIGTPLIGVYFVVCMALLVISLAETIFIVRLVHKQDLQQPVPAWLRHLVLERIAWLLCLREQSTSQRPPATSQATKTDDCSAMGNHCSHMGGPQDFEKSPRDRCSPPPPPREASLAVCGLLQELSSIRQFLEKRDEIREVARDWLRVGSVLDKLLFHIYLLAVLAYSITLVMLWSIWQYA
Procedure: The experiments were carried out as follows. […] Oocytes avoid of the follicle layer were selected and incubated for 24 hours in Modified Barth's Saline buffer [88 mM NaCl, 1 mM KCl, 15 mM HEPES, 2.4 mM NaHCO3, 0.41 mM CaCl2, 0.82 mM MgSO4, 0.3 mM Ca(NO3)2] supplemented with 2 mM sodium pyruvate, 0.1 U/l penicillin and 0.1 μg/l streptomycin. Stage IV-IV oocytes were identified and injected with 12-48 nl of nuclease free water containing 14-50 pg of cRNA coding for human 5-HT3A receptors and incubated at 18° C. until they were used for electrophysiological recordings (1-7 days after injection). […] Cells were impaled with agar plugged 0.5-1 MΩ electrodes containing 3 M KCl and voltage clamped at −90 mV by a GeneClamp 500B amplifier. The oocytes were continuously perfused with Ringer buffer and the drugs were applied in the perfusate.

[3] = system: extracellular levels of acetylcholine in the prefrontal cortex and ventral hippocampus; assay: Microdialysis: extracellular acetylcholine levels in freely-moving rats; type: in vivo; conditions: rat, FIGS. 10A and 10B
Procedure: The experiment was designed to evaluate the effects of compounds of the present invention on extracellular levels of acetylcholine in the prefrontal cortex and ventral hippocampus of freely-moving rats.
Male Sprague-Dawley rats, initially weighing 275-300 g, were used. The animals were housed under a 12-hr light/dark cycle under controlled conditions for regular in-door temperature (21±2° C.) and humidity (55±5%) with food and tap water available ad libitum.
Rats were anaesthetised with hypnorm/dormicum (2 ml/kg) and intracerebral guide cannulas (CMA/12) were stereotaxically implanted into the hippocampus, aiming to position the dialysis probe tip in the ventral hippocampus (co-ordinates: 5.6 mm posterior to bregma, lateral −5.0 mm, 7.0 mm ventral to dura or in the frontal cortex (co-ordinates: 3.2 mm anterior to bregma; lateral, 0.8 mm; 4.0 mm ventral to dura). Anchor screws and acrylic cement were used for fixation of the guide cannulas. The body temperature of the animals was monitored by rectal probe and maintained at 37° C. The rats were allowed to recover from surgery for 2 days, housed singly in cages. On the day of the experiment a microdialysis probe (CMA/12, 0.5 mm diameter, 3 mm length) was inserted through the guide cannula.
The probes were connected via a dual channel swivel to a microinjection pump. […]

[4] = system: C57/B6 mice; assay: Formalin model of neuropathic pain; type: in vivo; conditions: in words
Procedure: The irritation caused by the formalin injection elicits a characteristic biphasic behavioural response, as quantified by the amount of time spent licking the injured paw. The first phase (˜0-10 minutes) represents direct chemical irritation and nociception, whereas the second (˜20-30 minutes) is thought to represent pain of neuropathic origin. The two phases are separated by a quiescent period in which behaviour returns to normal. Measuring the amount of time spent licking the injured paw in the two phases assesses the effectiveness of test compounds to reduce the painful stimuli. Eight C57/B6 mice (ca. 25 g) were tested per group. Table 4 below show the amount of time spent licking the injured paw in the two phases, i.e. 0-5 minutes and 20-30 minutes post formalin injection. The amount of compound administered is calculated as the free base.

[5] = system: healthy volunteers; assay: Multiple dose clinical trial, vital signs including blood pressure; type: in vivo, human; conditions: up to 30 mg/day
Source text: 49 subjects received active compound and 21 subjects received placebo.

Cc1ccc(Sc2ccccc2C2CCNCC2)cc1 (racemic)
solubility (in words) [1]: exceptionally high solubility | Precipitate [1]: =start (after

Cc1ccc(Sc2ccccc2C2CCNCC2)cc1 [Adipicacid, 1,6-hexanedioic acid 2:1]
Precipitate [1]: =start

Cc1ccc(Sc2ccccc2C2CCNCC2)cc1 [Citric acid 2:1]
Precipitate [1]: =Start

Cc1ccc(Sc2ccccc2C2CCNCC2)cc1 [Compound I, 4-[2-(4-methylphenylsulfanyl)-phenyl]piperidine]
maximal current, of the maximal current elicited by 5-HT itself [2]: 70-80% | extra cellular level of acetylcholine in the prefrontal cortex and the hippocampus [3]: increase | effect in the first phase (direct chemical irritation and nociception) [4]: little effect | time spent licking paws in the second phase [4]: clear and dose dependent decrease | blood pressure [5]: only at the highest dose were there signs of elevated blood pressure

Cc1ccc(Sc2ccccc2C2CCNCC2)cc1 [D-tartaric acid, D-2,3-dihydroxy butanedioic acid 1:1]
Precipitate [1]: Hydrate

Cc1ccc(Sc2ccccc2C2CCNCC2)cc1 [Fumaric acid 1:1]
Precipitate [1]: =start

Cc1ccc(Sc2ccccc2C2CCNCC2)cc1 [Glutamic acid 1:1]
solubility (in words) [1]: exceptionally high solubility

Cc1ccc(Sc2ccccc2C2CCNCC2)cc1 [Glutaric acid, 1,5-pentanedioic acid 1:1]
solubility (in words) [1]: exceptionally high solubility | Precipitate [1]: =start

Cc1ccc(Sc2ccccc2C2CCNCC2)cc1 [HBr, 4-(2-(4-tolylsulfanyl)phenyl)-piperidin hydrobromide]
Resulting pH ([1]; hydrobromide): 7.0 | Precipitate ([1]; hydrobromide): =Start

Cc1ccc(Sc2ccccc2C2CCNCC2)cc1 [HCl]
Precipitate [1]: =Start

Cc1ccc(Sc2ccccc2C2CCNCC2)cc1 [Oxalic acid 1:1]
Precipitate [1]: =Start

Cc1ccc(Sc2ccccc2C2CCNCC2)cc1 [Phosphoric acid 1:1]
Resulting pH [1]: 2.0

Cc1ccc(Sc2ccccc2C2CCNCC2)cc1 [Sebacoinic acid, 1,8-octanedioic acid 2:1]
Precipitate [1]: =Start
